The text below walks through data of ChEMBL document CHEMBL4725257, “Investigation into the influence of an acrylic acid acceptor in organic D-π-A sensitizers against phototoxicity” (Bioorg Med Chem, 2020).

SMILES strings stand for the structures.

Data set [1] deals with HeLa. In words: Phototoxicity against human HeLa cells assessed as reduction in cell viability preincubated for 1 hr followed by white LED irradiation for 15 mins and measured after 48 hrs by MTT assay. The following applies: light or radiation study. Format: functional, cell-based.
Data set [2] is described as follows: Drug uptake in human HeLa cells at 20 uM pretreated with clathrin-mediated endocytosis inhibitor, sucrose for 1 hr followed by incubation with compound for 1 hr by fluorescence based analysis. Format: ADME, cell-based.
Data set [3] in a line: Drug uptake in human HeLa cells at 20 uM pretreated with lipid raft endocytosis inhibitor, methyl-beta-cyclodextrin for 1 hr followed by incubation with compound for 1 hr by fluorescence based analysis. Format: ADME, cell-based.
Data set [4] has as its system HeLa. In words: Cytotoxicity against human HeLa cells assessed as reduction in cell viability incubated for 48 hrs measured under dark conditions by MTT assay. Format: functional, cell-based. In general terms: Formazan colour is commonly taken as a measure of viable cells.
Data set [5] can be described thus: Drug uptake in human HeLa cells at 20 uM incubated for 1 hr at 37 degC by fluorescence based analysis. Format: ADME, cell-based.
The nature of data set [6]: Drug uptake in lysosomes of human HeLa cell by fluorescence confocal microscopy. The format is ADME, subcellular, Lysosome.
Data set [7] is described as follows: Drug uptake in mitochondria of human HeLa cell by fluorescence confocal microscopy. Format: ADME.
Data set [8] in a line: Drug uptake in human HeLa cells at 20 uM pretreated with endosome fusion inhibitor, wortmannin for 1 hr followed incubation with compound for 1 hr by fluorescence based analysis. The format is ADME, cell-based.
Data set [9] can be described thus: Drug uptake in human HeLa cells at 20 uM incubated for 1 hr at 4 degC by fluorescence based analysis. The format is ADME, cell-based.
The nature of data set [10]: Photo-oxidation of L-tryptophan assessed as oxidative damage at 10 uM irradiated with white LED light at 15 mins interval for 60 mins by fluorescence based analysis. The format is ADME. The following applies: 1 h.
Data set [11] is described as follows: Phototoxicity index, ratio of IC50 for cytotoxicity against human HeLa cells measured under dark condition to IC50 for phototoxicity against human HeLa cells upon white LED light irradiation. The format is functional.
Data set [12] in a line: Photo-oxidation of L-tryptophan assessed as oxidative damage at 10 uM irradiated with white LED light at 15 mins interval for 60 mins in presence of type 2 singlet oxygen quencher, NaN3 by fluorescence based analysis. The format is ADME. The settings on record: 1 h.
Data set [13] in a line: Drug uptake in human HeLa cell membrane by fluorescence confocal microscopy. The format is ADME, cell membranes.

Usually IC50 stands for the concentration that gives 50% inhibition. As for `O=C(O)c1ccc(-c2ccc(-c3ccc(N(c4ccccc4)c4ccccc4)cc3)s2)s1`, the results for the IC50 in the data set with HeLa [1] and in the data set on HeLa [4] were 7.8 µM and more than 100 µM, respectively. In addition, the Drug uptake in data set [2] is recorded as 188 pmol; in [3], 82 pmol; in data set [5], 299 pmol; in data set [6], “Active”; in data set [7], “Active”; in data set [8], 205 pmol. The Drug uptake in [9] is recorded as 64 pmol. Moreover, the result in data set [10] was Active. Further, in data set [11], the “Ratio IC50” value is more than 12.
Take `O=C(O)/C=C/c1ccc(-c2ccc(-c3ccc(N(c4ccccc4)c4ccccc4)cc3)s2)s1`: the results for the IC50 in the data set on HeLa [1] and with HeLa [4] were 0.046 µM and 13.8 µM, respectively. For the same compound, the Drug uptake in data set [5] is 80 pmol; in data set [6], “Active”; in data set [7] it was “Active”; in data set [9], 40 pmol. Moreover, in data set [10], the result was Active. Moreover, in data set [11], the “Ratio IC50” value was determined as 460.
As for `O=C(O)CCc1ccc(-c2ccc(-c3ccc(N(c4ccccc4)c4ccccc4)cc3)s2)s1`, the IC50 with HeLa [1] was found to be 2.4 µM; in the data set on HeLa [4] it was 43.4 µM. Also, the Drug uptake in [2] is recorded as 199 pmol; in data set [3] it was 98 pmol; in data set [5], 232 pmol; in [6], “Active”; in [7] it was “Active”; in data set [8], 225 pmol. The same compound came in with a Drug uptake in data set [9] of 44 pmol. For the same compound, the result in data set [10] was Active. In addition, the “Ratio IC50” value in data set [11] worked out at 18.
Turning to `COC(=O)/C(C#N)=C/c1ccc(-c2ccc(-c3ccc(N(c4ccccc4)c4ccccc4)cc3)s2)s1`, the IC50 in the data set with HeLa [1] and with HeLa [4] was more than 100 µM each time.
`N#CC(C#N)=Cc1ccc(-c2ccc(-c3ccc(N(c4ccccc4)c4ccccc4)cc3)s2)s1`: the figures for the half-inhibitory concentration (IC50) with HeLa [1] and in the data set with HeLa [4] were more than 74.4 µM and more than 100 µM, respectively.
Regarding `O=C(O)C(=Cc1ccc(-c2ccc(-c3ccc(N(c4ccccc4)c4ccccc4)cc3)s2)s1)C(=O)O`, the 50% inhibitory concentration (IC50) came to 0.68 µM in the data set on HeLa [1] and 61.8 µM with HeLa [4]. In addition, the figures for the Activity result in data set [12] and in data set [10] were “Not Active” and “Active”, respectively. The Drug uptake is 53 pmol in data set [5], “Active” in [6], “Active” in [7] and 36 pmol in [9]. Also, in data set [11], the “Ratio IC50” value stood at 91.
In the case of `C[n+]1ccc(/C=C/c2ccc(-c3ccc(-c4ccc(N(c5ccccc5)c5ccccc5)cc4)s3)s2)cc1.[I-]`, the IC50 came to 0.94 µM in the data set with HeLa [1] and 3.3 µM in the data set on HeLa [4]. The Drug uptake is listed as 591 pmol in data set [2]; 555 pmol in [3]; “Active” in [13]; 747 pmol in [5]; “Active” in data set [6]; “Active” in [7]. The Drug uptake in data set [8] came out at 649 pmol; in [9], 344 pmol. For the same compound, the result in data set [10] was Active. In data set [11], the “Ratio IC50” value is 3.5.
With `c1ccc(N(c2ccccc2)c2ccc(-c3ccc(-c4cccs4)s3)cc2)cc1`, the IC50 in the data set on HeLa [1] and with HeLa [4] was more than 100 µM throughout. The Drug uptake in [5] is 105 pmol; in data set [6] it was “Active”; in data set [7], “Active”; in [9] it was 68 pmol. Besides, the result in data set [10] was Active.
